Test system: respiratory epithelial cells

IL-13: human IL-13 (Peprotech, Inc.) added to the medium at 50 ng/mL to stimulate respiratory epithelial cells
AI948584 48086_at expression change (lot 1, Day 7, AI): −3.9
AI971023 48539_at expression change (lot 1, Day 7, AI): −2.1
AI984780 (52384_s_at) expression change (lot 1, Day 7, AI): −2.5
AL040936 (45684_at) expression change (lot 1, Day 7, AI): −2.3
AQP5 32909_at expression change (lot 1, Day 7, AI): −3.4
ARHGEF4 36524_at expression change (lot 1, Day 7, AI): −4.1
ARHV (82231_at) expression change (lot 1, Day 7, AI): −2.7
AW022213 (79520_at) expression change (lot 1, Day 7, AI): −2.6
AW025596 52634_at expression change (lot 1, Day 7, AI): −2.5
AW025596 52637_g_at expression change (lot 1, Day 7, AI): −5.7
B4GALT5 56373_at expression change (lot 1, Day 7, AI): −2.2
BARX2 35425_at expression change (lot 1, Day 7, AI): −2.4
BPGM (51261_at) expression change (lot 1, Day 7, AI): −3.7
CBLB 514_at expression change (lot 1, Day 7, AI): −4.2
CBLB 35632_at expression change (lot 1, Day 7, AI): −2
COL12A1 (44730_at) expression change (lot 1, Day 7, AI): −3.5
CRABP-II 1057_at expression change (lot 1, Day 7, AI): −5.4
CRABP-II 41783_at expression change (lot 1, Day 7, AI): −8.8
Clorf28 50075_at expression change (lot 1, Day 7, AI): −3.5
DHCR24 (74557_s_at) expression change (lot 1, Day 7, AI): −2
DKFZp434K1210 44682_at expression change (lot 1, Day 7, AI): −2.1
DSC3 (79615_at) expression change (lot 1, Day 7, AI): −2.4
DSC3a, b 47119_at expression change (lot 1, Day 7, AI): −2.8
DSC3a, b 79615_at expression change (lot 1, Day 7, AI): −2.4
EVPK 39569_at expression change (lot 1, Day 7, AI): −2
FKBP5 (46271_at) expression change (lot 1, Day 7, AI): −2.3
FLJ10298 (62490_f_at) expression change (lot 1, Day 7, AI): −4.5
FLJ10718 52072_at expression change (lot 1, Day 7, AI): −3.8
FLJ12541 43546_at expression change (lot 1, Day 7, AI): −10.1
FLJ20048 (49196_at) expression change (lot 1, Day 7, AI): −4.3
FLJ20500 43853_at expression change (lot 1, Day 7, AI): −2.1
FLJ23309 45563_f_at expression change (lot 1, Day 7, AI): −2
FLJ23516 47534_at expression change (lot 1, Day 7, AI): −4.1
GABRP 40339_at expression change (lot 1, Day 7, AI): −2.1
GAS41 (64121_at) expression change (lot 1, Day 7, AI): −2
GJA1 32531_at expression change (lot 1, Day 7, AI): −8.8
GK (61873_at) expression change (lot 1, Day 7, AI): −2.7
GPD2 42720_at expression change (lot 1, Day 7, AI): −2
GSTA3 58023 at expression change (lot 1, Day 7, AI): −2.7
HEY1 44783_s_at expression change (lot 1, Day 7, AI): −4.5
HIN-1 (46200_at) expression change (lot 1, Day 7, AI): −32.7
HSPC195 44705_at expression change (lot 1, Day 7, AI): −2.4
ID1 36619_r_at expression change (lot 1, Day 7, AI): −8
IL20RA 42969_at expression change (lot 1, Day 7, AI): −2.1
IVL 36355_at expression change (lot 1, Day 7, AI): −3.7
KCNMA1 (47575_g_at) expression change (lot 1, Day 7, AI): −5.2
KCNMA1 (53796_at) expression change (lot 1, Day 7, AI): −2.8
KIAA0878 (48793_at) expression change (lot 1, Day 7, AI): −2.8
KIAA1376 (62972_at) expression change (lot 1, Day 7, AI): −2.2
KIAA1376 (64047_at) expression change (lot 1, Day 7, AI): −4
KIAA1547 58531_g_at expression change (lot 1, Day 7, AI): −2.6
KLF7 (42769_at) expression change (lot 1, Day 7, AI): −2.3
KRT6B (62998_at) expression change (lot 1, Day 7, AI): −5.6
KRT15 37582_at expression change (lot 1, Day 7, AI): −2.6
LCE 45605_at expression change (lot 1, Day 7, AI): −2.6
LMO4 1452_at expression change (lot 1, Day 7, AI): −2
LOC51297 (55440_at) expression change (lot 1, Day 7, AI): −60.6
LOC51297 (55442_g_at) expression change (lot 1, Day 7, AI): −181.3
LOC51316 (63342_at) expression change (lot 1, Day 7, AI): −2.4
LOC55893 (64071_at) expression change (lot 1, Day 7, AI): −3.5
LOC129642 (42065_at) expression change (lot 1, Day 7, AI): −5.4
LOC129642 (58288_at) expression change (lot 1, Day 7, AI): −7.2
LOC131177 (43849_s_at) expression change (lot 1, Day 7, AI): −2.6
LOC131177 (45394_s_at) expression change (lot 1, Day 7, AI): −2.3
MGC12536 46924_at expression change (lot 1, Day 7, AI): −4.9
MGC13102 (54791_at) expression change (lot 1, Day 7, AI): −3.9
MGC14128 55924_at expression change (lot 1, Day 7, AI): −5.1
MGC14128 (51669_r_at) expression change (lot 1, Day 7, AI): −4.4
MGC14597 (46030_at) expression change (lot 1, Day 7, AI): −3.7
MGC16207 43412_s_at expression change (lot 1, Day 7, AI): −2.6
MGC16207 (65876_at) expression change (lot 1, Day 7, AI): −4
N52554 47432_at expression change (lot 1, Day 7, AI): −2.7
N71183 52473_at expression change (lot 1, Day 7, AI): −2.3
PSCA (63958_at) expression change (lot 1, Day 7, AI): −6.5
RAC2 32737_at expression change (lot 1, Day 7, AI): −4.9
RIN1 1778_g_at expression change (lot 1, Day 7, AI): −2.1
SCNN1B 39682_at expression change (lot 1, Day 7, AI): −7.6
SEMA4B (46709_at) expression change (lot 1, Day 7, AI): −3.6
SERPINA3 (75248_at) expression change (lot 1, Day 7, AI): −24.4
SLC11A3 (45826_at) expression change (lot 1, Day 7, AI): −3.3
SLC34A2 (48048_at) expression change (lot 1, Day 7, AI): −2
SPON2 52576_s_at expression change (lot 1, Day 7, AI): −3
SPRR1B 37160_at expression change (lot 1, Day 7, AI): −2.1
STEAP 40297_at expression change (lot 1, Day 7, AI): −3.1
T52027 (63150_at) expression change (lot 1, Day 7, AI): −2.9
TCF8 33439_at expression change (lot 1, Day 7, AI): −2.1
TGFBI (68339_at) expression change (lot 1, Day 7, AI): −4.2
TNFAIP2 (74633_at) expression change (lot 1, Day 7, AI): −4.6
TNNT1 36113_s_at expression change (lot 1, Day 7, AI): −5.5
TPM1 36790_at expression change (lot 1, Day 7, AI): −3.3
TPM1 36791_g_at expression change (lot 1, Day 7, AI): −3.2
TPM1 36792_at expression change (lot 1, Day 7, AI): −3.9
UCP2 37591_at expression change (lot 1, Day 7, AI): −12.7
UGB 39220_at expression change (lot 1, Day 7, AI): −28.1
VEGFC 1934_s_at expression change (lot 1, Day 7, AI): −2.4
VIM 34091_s_at expression change (lot 1, Day 7, AI): −9.4
W55956 46700_at expression change (lot 1, Day 7, AI): −2.3
W72331 49486 at expression change (lot 1, Day 7, AI): −3.4
AA167714 (54897_at) expression fold change (lot 1, Day 7, AI method): 3.9 fold
AA420479 (52539_at) expression fold change (lot 1, Day 7, AI method): 4.1 fold
AA582926 (52307_at) expression fold change (lot 1, Day 7, AI method): 3.8 fold
AA604375 (44127_at) expression fold change (lot 1, Day 7, AI method): 2.5 fold
ACP5 (677_s_at) expression, fold change upon IL-13 stimulation (lot 1, Day 7, AI method): 2.5 fold
ADAM8 (40712_at) expression, fold change upon IL-13 stimulation (lot 1, Day 7, AI method): 5.1 fold
ADAM28 (35479_at) expression, fold change upon IL-13 stimulation (lot 1, Day 7, AI method): 5 fold
AI565105 (54886_at) expression fold change (lot 1, Day 7, AI method): 2.4 fold
AI659927 (54033_at) expression fold change (lot 1, Day 7, AI method): 4.2 fold
